These compounds were tested against T1, human A2B receptors (Homo sapiens, UniProt P29275) (assay: Binding at human A2B receptors expressed in HEK-293 cells vs [125I]-ABOPX). Settings: read-out: Ki hA2B (converted).
T1 construct: expressed in transfected cells; host or cells: HEK-293
T1 sequence (P29275 1-332): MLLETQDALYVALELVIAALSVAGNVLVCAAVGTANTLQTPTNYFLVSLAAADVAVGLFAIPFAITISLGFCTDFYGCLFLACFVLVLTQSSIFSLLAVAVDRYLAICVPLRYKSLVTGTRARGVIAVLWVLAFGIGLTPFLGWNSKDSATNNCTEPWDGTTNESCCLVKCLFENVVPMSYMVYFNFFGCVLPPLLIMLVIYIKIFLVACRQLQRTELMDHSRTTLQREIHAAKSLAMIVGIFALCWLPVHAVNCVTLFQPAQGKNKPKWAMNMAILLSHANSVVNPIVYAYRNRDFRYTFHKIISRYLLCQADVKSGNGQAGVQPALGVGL
Experimental: The human A2B receptor cDNA was subcloned into the expression plasmid pDoubleTrouble [[Robeva et al., 1996a]]. The plasmid was amplified in competent JM109 cells and plasmid DNA isolated using Wizard Megaprep columns (Promega Corp., Madison, WI).
Transfected HEK cells were grown under 5% CO2/[…] humidified atmosphere at a temperature of 37°C. Colonies were selected by growth of cells in 0.6 mg/mL G418. Transfected cells were maintained in DMEM supplemented with Hams F12 nutrient mixture (1/1), 10% newborn calf serum, 2 mM glutamine, and containing 50 IU/mL penicillin, 50 μg/mL streptomycin, and 0.2 mg/mL Geneticin (G418, Boehringer Mannheim, Indianapolis, IN). Cells were cultured in 10 cm diameter round plates and subcultured when grown confluent (approximately after 72 h).
Confluent monolayers of HEK-A2B cells were washed with PBS followed by ice-cold Buffer A (10 mM HEPES, 10 mM EDTA, pH 7.4) with protease inhibitors ([…] benzamidine, […], and […] of each aprotinin, pepstatin, and leupeptin). The cells were homogenized in a Polytron (Brinkmann) for 20 sec, centrifuged at 30,000g, and the pellets washed twice with buffer HE (10 mM HEPES, 1 mM EDTA, pH 7.4 with protease inhibitors). The final pellet was resuspended in buffer HE, supplemented with 10% sucrose and frozen in aliquots at −80°C. For binding assays, membranes were thawed and diluted 5–10-fold with HE to a final protein concentration of approximately 1 mg/mL. To determine protein concentrations, membranes, and bovine serum albumin standards were dissolved in 0.2% NaOH/0.01% SDS and protein determined using fluorescamine fluorescence [[Stowell et al., 1978]]. […] To prepare [^125I-]ABOPX, […] of 1 mM ABOPX in methanol/1 M NaOH (20:1) was added to […] of 100 mM phosphate buffer, pH 7.3. One or 2 mCi of Na^125I was added, followed by […] of 1 mg/mL chloramine-T in water. After incubating for 20 min at room temperature, 50 mL of 10 mg/mL Na-metabisulfite in water was added the quench the reaction. The reaction products were applied to a C18 HPLC column using 4 mM phosphate, pH 6.0/methanol. After 5 min in 35% methanol, the methanol concentration was ramped to 100% over 15 min. Unreacted ABOPX eluted in 11–12 min; [^125I-]ABOPX eluted at 18–19 min in a yield of 50–60% of the initial ^125I. In equilibrium binding assays the ratio of [^127I/^125I-]ABOPX was 10–20/1. […] The incubation time was 3 h at 21°C. […] Competition experiments were carried out using 0.6 nM ^125I-ABOPX. Membranes were filtered on Whatman GF/C filters using a Brandell cell harvester (Gaithersburg, MD) and washed three times over 15–20 sec with ice-cold buffer (10 mM Tris, 1 mM MgCl2, pH 7.4). Bmax and KD values were calculated by Marquardt’s nonlinear least squares interpolation for single site binding models [[Marquardt, 1963]]. Ki values for different compounds were derived from IC50 values as described previously [[Linden, 1982]]. Data from replicate experiments are tabulated as means ± SEM.
At A2B receptors, two radioligand binding assays (Table 1) were used. Ki values of xanthine derivatives were determined in displacement of binding of the non-selective radioligands […], 8 (4-(2-[7-amino-2-{furyl}{1,2,4}triazolo{2,3-a}{1,3,5}tr nzyl)-8-phenyloxyacetate-1-propyl-xanthine), at human A2B receptors expressed in HEK-293 cell membranes [[Linden and Jacobson, 1998]]. In order to evaluate selectivity, selected derivatives were subjected to standard binding assays at A1, A2A, and A3 receptors. The initial screening utilized rat brain A1/A2A receptors (with radioligands [^3H]R-PIA and [^3H]CGS-21680), and selected compounds were examined at the recombinant human subtypes (Table 1), using [^3H]CPX ([^3H]8-cyclopentyl-1,3-dipropylxanthine) and ^125I-ZM 241385, ^125I-4-(2-[7-amino-2-[2-furyl][1,2,4]triazolo[2,3-a][1,3,5]triazin-5-yl-amino]ethyl)phenol) [[Palmer et al., 1996]].

Row | SMILES | Ki
1 | CCCn1c(=O)c2[nH]c(-c3ccc(OCC(=O)OCC)cc3)nc2n(CCC)c1=O [Compound 4b] | 34.5 nM
2 | CCCn1c(=O)[nH]c(=O)c2[nH]c(-c3ccc(OCC(=O)NN4C(=O)C(C)=C(C)C4=O)cc3)nc21 [Compound 15, 8-[4-[(Carboxymethyl)oxy]phenyl]-1H-3-(n-propyl)xanthine N,N-[(1,2-Dimethyl)maleyl]hydrazide] | 1900 nM
3 | CCCn1c(=O)c2[nH]c(-c3ccc(OCC(=O)NN4C(=O)C(C)=C(C)C4=O)cc3)nc2n(CCC)c1=O [Compound 14, 8-[4-[(Carboxymethyl)oxy]phenyl]-1,3-di-(n-propyl)xanthine N,N-[(1,2-Dimethyl)maleyl]hydrazide] | 33.8 nM
4 | CCCn1c(=O)c2[nH]c(-c3ccc(OCC(=O)NN4C(=O)c5ccccc5C4=O)cc3)nc2n(CCC)c1=O [Compound 21, 8-[4-[(Carboxymethyl)oxy]phenyl]-1,3-di-(n-propyl)xanthine N,N-Phthaloylhydrazide] | 46.4 nM
5 | CCCn1c(=O)c2[nH]c(-c3ccc(OCC(=O)NNC(C)=O)cc3)nc2n(CCC)c1=O [Compound 4e, 8-[4-[(Carboxymethyl)oxy]phenyl]-1,3-di-(n-propyl)xanthine N-Acetylhydrazide] | 33.8 nM
6 | CCCn1c(=O)c2[nH]c(-c3ccc(OCC(=O)NNC(=O)CCC(=O)O)cc3)nc2n(CCC)c1=O [Compound 9, 8-[4-[(Carboxymethyl)oxy]phenyl]-1,3-di-(n-propyl)xanthine N-[(3-Carboxy)-n-propionyl]hydrazide] | 97.8 nM
